Source: patent US10889543B2, “Fine-tune modulators of neuronal excitability for neuropsychiatric disorders” (THE BOARD OF REGENTS OF THE UNIVERSITY OF TEXAS SYSTEM, priority 2016, dated 2021)
Residues, ends and D or L forms follow the SMILES beside them. *: point of attachment. Cbz = O=C(OCc1ccccc1)*; Boc = CC(C)(C)OC(=O)*

Biological target: T1, Nav1.6 channel in the presence of FGF14 (Homo sapiens, UniProt Q9UQD0)
T1 construct: expressed in transfected cells; host or cells: HEK-Nav1.6 cells transiently transfected with FGF14-GFP
Test: Whole-cell patch clamp of Na+ currents in HEK-Nav1.6 cells expressing FGF14-GFP
Type: cell-based
Experimental: To determine the role of compounds of the invention in Nav1.6 channels alone and Nav1.6 channels in the presence of FGF14, 2×2 experimental groups using compound ZL0181, an exemplary embodiment, were designed. HEK-Nav1.6 cells were transiently transfected with GFP or […] and treated with either DMSO (0.15% final concentration, control group) or ZL0181 (20 μM, final concentration) 20-60 min prior to the experiments. […] Thus, ZL0181 inhibits peak current amplitude of Na1.6 current.
The role of ZOL181 in Nav1.6 channel in the presence of FGF14 was then investigated. […] Furthermore, the role of ZL0181 to modulate the biophysical properties of Nav1.6 channel in the presence of FGF14 was investigated. In consistency with previous studies, voltage dependence of activation and steady-state inactivation kinetics changes in the cells expressing FGF14-GFP compared with control (FIG. 3C). […] Thus, ZL0181 works synergistically with FGF14 to regulate the peak current amplitude as well as the inactivation kinetics.
Furthermore, using a range of doses from 1 μM to 100 μM a dose-response profile for ZL0181 in HEK293-Nav1.6 cells alone and HEK-Nav1.6 cells transfected with FGF14 was developed.
HEK-Nav1.1, […] HEK-Nav1.6 were maintained in medium composed of equal volumes of DMEM and F-12 (Invitrogen) supplemented with 0.05% glucose, 0.5 mm pyruvate, 10% fetal bovine serum, 100 units/ml penicillin, 100 μg/ml streptomycin incubated at 37° C. with 5% CO2. For selection of Nav1.1 and Nav1.2, 500 μg/ml G418 (Invitrogen) was used, and for selection of Nav1.6, 80 μg/ml G418 (Invitrogen) was used. Cells were transfected according to manufacturer's instructions at 90-100% confluency using Lipofectamine 2000 (Invitrogen). See e.g., Shavkunov, A., et al. Assay and drug development technologies 10(2):148-160 (2012).
Detailed methods for path-clamp experiments is known in the art. See e.g., Ali, S. R., et al., Journal of Biological Chemistry 291:11268 (2016).

T1 sequence (Q9UQD0 whole entry): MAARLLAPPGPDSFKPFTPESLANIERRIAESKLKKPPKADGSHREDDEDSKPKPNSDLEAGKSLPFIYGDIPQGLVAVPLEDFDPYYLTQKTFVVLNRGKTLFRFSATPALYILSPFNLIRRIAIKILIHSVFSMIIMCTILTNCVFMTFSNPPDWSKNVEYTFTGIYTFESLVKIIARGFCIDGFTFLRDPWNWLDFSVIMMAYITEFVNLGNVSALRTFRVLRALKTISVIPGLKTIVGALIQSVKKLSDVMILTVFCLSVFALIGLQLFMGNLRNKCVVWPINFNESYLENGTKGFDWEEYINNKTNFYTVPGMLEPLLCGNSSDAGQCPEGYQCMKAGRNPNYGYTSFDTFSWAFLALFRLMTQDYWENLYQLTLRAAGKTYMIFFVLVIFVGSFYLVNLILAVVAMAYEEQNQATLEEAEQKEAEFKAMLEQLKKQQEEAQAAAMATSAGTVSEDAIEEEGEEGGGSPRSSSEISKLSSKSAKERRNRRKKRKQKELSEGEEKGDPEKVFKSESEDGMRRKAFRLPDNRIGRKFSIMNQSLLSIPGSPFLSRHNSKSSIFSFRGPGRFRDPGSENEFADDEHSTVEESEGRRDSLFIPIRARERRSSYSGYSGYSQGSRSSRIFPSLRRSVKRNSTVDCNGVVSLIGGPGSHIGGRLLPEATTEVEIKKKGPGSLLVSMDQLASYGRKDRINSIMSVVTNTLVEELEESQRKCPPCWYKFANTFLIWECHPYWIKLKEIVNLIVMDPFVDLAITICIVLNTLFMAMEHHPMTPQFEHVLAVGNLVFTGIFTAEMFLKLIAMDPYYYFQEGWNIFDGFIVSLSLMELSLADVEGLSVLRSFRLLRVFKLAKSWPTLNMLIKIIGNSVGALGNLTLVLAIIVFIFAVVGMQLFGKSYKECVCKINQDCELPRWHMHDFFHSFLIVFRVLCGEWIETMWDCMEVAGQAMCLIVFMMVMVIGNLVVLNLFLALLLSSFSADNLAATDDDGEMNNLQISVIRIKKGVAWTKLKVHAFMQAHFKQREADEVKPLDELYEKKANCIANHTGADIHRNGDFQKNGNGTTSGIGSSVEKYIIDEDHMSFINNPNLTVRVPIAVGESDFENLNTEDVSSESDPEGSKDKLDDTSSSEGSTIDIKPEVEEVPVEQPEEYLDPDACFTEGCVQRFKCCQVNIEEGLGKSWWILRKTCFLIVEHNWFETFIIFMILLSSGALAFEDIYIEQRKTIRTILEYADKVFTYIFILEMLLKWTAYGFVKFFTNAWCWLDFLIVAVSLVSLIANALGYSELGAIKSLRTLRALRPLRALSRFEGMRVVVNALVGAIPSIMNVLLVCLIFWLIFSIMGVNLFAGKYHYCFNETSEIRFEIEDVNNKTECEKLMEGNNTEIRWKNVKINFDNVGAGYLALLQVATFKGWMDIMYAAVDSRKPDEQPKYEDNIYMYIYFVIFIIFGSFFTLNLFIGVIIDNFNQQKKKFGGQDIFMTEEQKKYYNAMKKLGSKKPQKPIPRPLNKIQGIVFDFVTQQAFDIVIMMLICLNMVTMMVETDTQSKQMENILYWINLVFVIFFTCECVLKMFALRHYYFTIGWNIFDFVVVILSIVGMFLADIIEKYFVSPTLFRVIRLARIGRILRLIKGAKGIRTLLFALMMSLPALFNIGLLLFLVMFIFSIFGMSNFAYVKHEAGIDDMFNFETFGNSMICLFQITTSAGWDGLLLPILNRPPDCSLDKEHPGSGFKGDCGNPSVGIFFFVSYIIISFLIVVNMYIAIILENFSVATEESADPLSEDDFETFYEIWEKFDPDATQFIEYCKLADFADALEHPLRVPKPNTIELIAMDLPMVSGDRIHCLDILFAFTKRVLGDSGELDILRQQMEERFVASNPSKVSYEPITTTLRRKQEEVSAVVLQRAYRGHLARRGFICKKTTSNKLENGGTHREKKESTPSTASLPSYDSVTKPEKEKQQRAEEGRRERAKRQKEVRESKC

Question: Which “steady-state inactivation (depolarizing shift induced by FGF14-GFP)” value (FGF14-GFP-expressing HEK-Nav1.6 cells, 20 μM) does the source give for `CC(C)C[C@H](NC(=O)[C@H](Cc1ccccc1)NC(=O)OCc1ccccc1)C(=O)N1CCC[C@H]1C(=O)N[C@@H](CCCCNC(=O)OC(C)(C)C)C(N)=O` [ZL0181, Z-Phe-Leu-Pro-Lys(Boc)-NH2] (Cbz-FLPK(Boc)-NH2) here?
Answer: The value was “rescued the depolarizing shift of the steady-state inactivation induced by FGF14-GFP expression back to control levels”.

Question: And the “Na+ current peak amplitude (peak current density)” value (FGF14-GFP-expressing HEK-Nav1.6 cells, 20 μM, n=19, DMSO control −18.1±3.8)?
Answer: Its value is −7.4±4.4 pA/pF.

Question: And the IC50 (HEK-Nav1.6 cells transfected with FGF14, doses 1 μM to 100 μM, read-out: IC50, inhibition of Nav1.6 encoded currents in presence of FGF14)?
Answer: The IC50 was 11.5 ± 1.3 µM.
